For experiment [1], the system named is GSCs. Briefly: cell viability assay by MTS. In kind it is cell-based. Particulars: increasing doses, 72 hrs. As to the method: Dose response curve for GSCs treated with Pan HDAC inhibitors TSA (Trichostatin A), SAHA (Vorinostat) versus the HDAC class IIa inhibitor (TMP269). Cell viability assay was determined by MTS after the treatment with increasing doses of each corresponding drug at time point 72 hrs with P-value <0.0001.
HDAC-7 has been crystalized, and like other members of class I, II, and IV, HDAC-7 binds to the substrates through a zinc mediated charge relay system. Class IIa HDAC has another specific zinc-binding motif adjacent to the active site, which directs the recognition and protein-protein interaction. However, there is remarkable structural diversity in HDAC-7 found in loop regions around the active site entrance that poses a challenge to generation of inhibitors.

The subject of experiment [2] is GSCs. Briefly: two-week limiting dilution assay (LDA), self-renewal / neuro-sphere formation. It is filed as cell-based. From the text: A graph using an online algorism to score and assess the self-renew ability of GSCs treated with DMSO and HDAC class IIa inhibitor respectively (FIGS. 6B and 6D).
To validate whether HDAC-7 inhibition would present a phenotype change in primary GSCs, its effect on modifying the self-renewal of GSCs was examined, and since there is no small molecule drug currently available as a selective HDAC-7 inhibitor, the class IIa HDAC inhibitor, TMP269, that inhibits HDAC-4,5,7,9, was used. The two-week limiting dilution assay “LDA” that tests the frequency of self-renewing cells within a population was applied. […] Moreover, the same significant result was observed when testing GSCs from different genotypes (FIGS. 6A-6D).

As to `O=C(CCCCCCC(=O)Nc1ccccc1)NO` [Vorinostat], the GSC cell viability entry with GSCs [1] is “inhibitory trend”.
In the case of `O=C(NCC1(c2nc(-c3ccccc3)cs2)CCOCC1)c1cccc(-c2noc(C(F)(F)F)n2)c1` [TMP269], in the experiment with GSCs [2] (2-week limiting dilution assay, versus DMSO control), the “neuro-sphere formation of GSCs” value is on record as “unable to form neuro-spheres”. Also, the “self-renewal of GSCs (ability to form neuro-spheres, algorithmic scoring)” value in the experiment with GSCs [2] (two-week LDA, versus DMSO-treated control cells, GSCs from different genotypes) was “significant decrease”. Also, the GSC cell viability result in the experiment on GSCs [1] is “decreases the GSCs' viability”.

The record behind these values is patent publication US20250002488A1, “Glioblastoma Multiforme Treatments” (Brown University, priority 2021, published 2025).
